# In US9079048B2, “Cosmetic or dermopharmaceutical composition comprising enkephalin-derived peptides for reducing and/or eliminating facial wrinkles” (Lipotec, S.A., priority 2005, dated 2015):
# Non-standard residues stand in square brackets, D forms with d. No end group written: not given here.
# Columns and labels:
# Type in all cases: cell-based
# [1] = system: primary cultures of rat hippocampus neurons; assay: Neuronal exocytosis of [3H]-L-glutamate; details: 1 mM peptide alone, 1 hour at 37° C; depolarization with 75 mM KCl and 2 mM CaCl2; FIG. 4
# Experimental: To determine if the enkephalin-derived peptides inhibit the neuronal exocytosis of neurotransmitters, their activity on the release of the neurotransmitter L-glutamate from primary cultures of rat hippocampus neurons was monitored. The exocytosis of this neurotransmitter in neuronal cultures can be achieved by means of the […] depolarization of the cells. The primary cultures of rat embryo hippocampus are prepared by means of conventional methods [Blanes-Mira, C., Merino, J. M., Valera, E., Fernandez-Ballester, G., Gutierrez, L. M., Viniegra, S., Pérez-Payá, E. and Ferrer-Montiel, A. Small peptides patterned after the N-terminus domain of SNAP25 inhibit SNARE complex assembly and regulated exocytosis. J. Neurochem. 88, 124-135] and are maintained in culture for 14 days in an incubator at 37° C. and 5% CO2. The cultures are incubated with [^3H]-L-glutamine to load them with [^3H]-L-glutamate for 3 hours at 37° C. The excess [^3H]-L-glutamine is then washed and they are incubated with 1 mM of the peptides to be studied for 1 hour at 37° C. The release of [^3H]-L-glutamate is carried out by means of depolarization with 75 mM KCl and 2 mM CaCl2 buffered in physiological buffer for 10 minutes at 37° C. The culture medium is collected and the amount of [^3H]-L-glutamate is quantified in a beta radioactivity counter. The results are standardized with respect to the release of [^3H]-L-glutamate in the absence of the peptide and are corrected with respect to the baseline release in the absence of calcium. […] The incubation with the enkephalin-derived peptide defined by SEQ ID NO: 6 caused a 4% inhibition.
# In order to determine if the activity of enkephalin-derived peptides is additive and/or synergistic with the exocytosis inhibiting peptide Argireline®, defined by SEQ ID NO: 5, the potency of both peptides for separately and jointly inhibiting the electrically evoked release of [^3H]-L-glutamate in the presence of Ca^2+ was compared. […]
# [2] = system: neurons in primary cultures of rat dorsal root ganglia; assay: Neuronal excitability, electrically evoked action potentials (40 mV depolarizing stimulus), patch clamp current-clamp; details: 1 mM peptide
# Experimental: (§1) The activity of the enkephalin-derived peptide defined by SEQ ID NO: 7 (Tyr-D-Ala-Gly-Phe-Leu) on the excitability of neurons was studied in primary cultures of rat dorsal root ganglia. These neurons were extracted following widely known methods [Nicol, G. D., Lopshire, J. C. and Pafford, C. M. (1997) Tumor necrosis factor enhances the capsaicin sensitivity of rat sensory neurons. J. Neurosci. 17, 975-982]. The neurons were cultured in a DMEM medium supplemented with 10% bovine serum, 5% horse serum and 50 ng/mL NGF for 2 days and the electrical activity was followed by means of a patch clamp technique with a conventional electrophysiology equipment in the current-clamp configuration [Hille, B. (2001) Ion channels of excitable membranes. Third Ed. Sinauer Associates, Inc]. Two neuron stimulation protocols were used to determine the inhibitory effect of the enkephalin-derived peptide defined by SEQ ID NO: 7.
# Secondly, the effect of the enkephalin-derived peptide defined by SEQ ID NO: 7 on electrically evoked neuronal activity was evaluated. To that end, the neurons were excited with a depolarizing electrical stimulus of 40 mV from their rest potential. As a result, the repetitive action potentials were triggered throughout the electrical stimulation time (FIG. 2). […]
# [3] = system: neurons in primary cultures of rat dorsal root ganglia; assay: Neuronal excitability, action potentials evoked by chemical stimulus (pH 6.0), patch clamp current-clamp; details: 1 mM peptide
# Experimental: as §1
# The neurons were first stimulated by means of a chemical stimulus such as the exposure to a buffered solution at pH 6.0. In these conditions, acid-dependent channels depolarizing the neuronal membrane are activated, triggering action potentials (FIG. 1). […] The inhibition of neuronal excitability caused by the enkephalin-derived peptide defined by SEQ ID NO: 7 is reversible as shown by the recovery of said excitability after eliminating the peptide from the extracellular medium. […]
Substance,inhibition of exocytosis of [3H]-L-glutamate [1] [%],reversibility of the inhibition of electrically evoked action potentials ([2]; after washing),"effect on electrically evoked action potentials ([2]; depolarizing electrical stimulus of 40 mV from rest potential, FIG. 2)","effect on action potentials evoked by exposure to acidic extracellular medium ([3]; buffered solution at pH 6.0, FIG. 1)","reversibility of the inhibition of neuronal excitability after eliminating the peptide ([3]; pH 6.0 stimulus, after washing)"
"Argireline®: exocytosis inhibiting peptide, acetyl hexapeptide-8 marketed by Lipotec, residues 12 to 17 of protein SNAP-25 (Ac-EEMQRR-NH2; listed as Homo sapiens) [reference compound]",18,–,–,–,–
"Tyr-D-Ala-Gly-Phe-Leu (Y[dA]GFL; listed as Homo sapiens) [SEQ ID NO: 7, enkephalin-derived peptide]",12,partially reversible,decrease in the frequency and amplitude of the action potentials,inhibition of the action potentials,reversible
"Tyr-Gly-Phe-Leu (YGFL; printed: Tyr-Gly-Phe-Leu) [SEQ ID NO: 6, enkephalin-derived peptide]",4,–,–,–,–
